Source: patent US20050074879A1, “Antisense oligonucleotide modulation of STAT3 expression” (priority 2000, published 2005)
Oligonucleotides are written 5' to 3', each unit as a sugar letter and its base; * is a phosphorothioate linkage, no mark a phosphodiester; rarer units and linkages stand in square brackets, end groups in braces. Plain capitals give the bases only. e = 2'-O-(2-methoxyethyl) (MOE); [5mC] = 5-methylcytosine; d = 2'-deoxy (DNA)

Legend:
[1] = system: RANTES mRNA; test: Induction of chemokines in BCL1 cells, RNase protection assay: RANTES; type: cell-based, mouse; settings: CpG oligonucleotide induced
Protocol: (§1) The effect of ISIS 17152 (SEQ ID. NO. 99) on chemokine levels was determined. BCL1 cells were grown, treated and processed as described in Example 2. Chemokine gene expression was induced in BCL1 cells by addition of […] of a CpG-containing oligonucleotide to the media 16 hours following antisense oligonucleotide electroporation. CpG-containing oligonucleotides are immune-stimulatory (Krieg, A. M., et al., Nature, 1995, 374, 546-549). The levels of chemokines were measured eight hours later using RNase protection assay as described in Example 2 with a mouse chemokine template set, Mck-5 (Pharmingen, San Diego, Calif.).

[2] = system: MIP1a mRNA; test: Induction of chemokines in BCL1 cells, RNase protection assay: MIP1a; type: cell-based, mouse; settings: CpG oligonucleotide induced
Protocol: as §1

[3] = system: MIP1b mRNA; test: Induction of chemokines in BCL1 cells, RNase protection assay: MIP1b; type: cell-based, mouse; settings: CpG oligonucleotide induced
Protocol: as §1

[4] = system: Human STAT3 mRNA; test: Inhibition of human STAT3 mRNA expression in U266 cells, Northern blot; type: cell-based
Protocol: U266 human myeloma cell lines (originally obtained from American Type Culture Collection) were maintained in RPMI 1640 medium supplemented with 10% fetal calf serum. Cells (15×10^6 cells in PBS) were transfected with oligonucleotides at 200V with a single 6-millisecond pulse using a BTX Electro Square Porator T820 (Genetronics, San Diego Calif.). The cells were incubated for 24 hours before RNA extraction.
Total cellular RNA was isolated using the Rneasy kit (Qiagen, Santa Clarita, Calif.). Northern blotting was perfomed on 15 μg of RNA using a cDNA probe prepared from MB-MDA 468 RNA by standard RT-PCR followed by a nested primer reaction. Signals were quantitated using a Molecular Dynamics Phosphorimager.
In order to examine the importance of STAT3 expression in multiple myeloma cells, a series of 20mer STAT3 antisense oligonucleotides were designed and synthesized, using phosphorothioate chemistry and incorporating 2′-O-methoxyethyl modifications to improve hybridization affinity and nuclease resistance.

[5] = system: U266 multiple myeloma cells; test: Apoptosis of U266 cells, Annexin-V staining, flow cytometry; type: cell-based, human
Protocol: U266 cells (ATCC, Bethesda, Md.) were cultured in RPMI 1640 medium supplemented with 10% heat-inactivated fetal bovine serum (Sigma Chemical Company, St. Louis, Mo.), 10 mM Hepes, pH 7.2, […] 2-ME, 2mM L-glutamine, 100 U/ml penicillin, and 100 µg/ml streptomycin (Gibco, Grand Island, N.Y.).
2′-O-methoxyethylribose modified phosphorothioate oligonucleotides were synthesized on an automated DNA synthesizer (Applied Biosystems model 380B), as described above. Chimeric oligonucleotides were employed in these studies; the chimeric oligonucleotides contain 2′-O-methoxyethyl modified residues flanking a 2′-deoxynucleotide/phosphorothioate region (gap) that supports RNase H activation. Oligonucleotides were analyzed by capillary gel electrophoresis and judged to be at least 85% full-length material. U266 (1×10^7 cells in PBS) were transfected with oligonucleotides by electroporation, at 175V, 1000 μF using a BTX Electro Cell Manipulator 600 (Genetronics, San Diego, Calif.).
10×10^6 U266 cells were electroporated with oligonucleotides and cultured for 48 hours before analysis of phosphatidylserine expression was performed as a measure of apoptosis using the Annexin-V staining kit (Clontech, Palo Alto, Calif.) according to the manufacturer's instructions. […] The samples were then diluted with FacsFlow buffer and analyzed on a Becton Dickinson FACScan (Mountain View, Calif.).

[6] = system: Human STAT3 mRNA; test: STAT3 mRNA in A549 cells treated with dsRNAs (duplex antisense compounds), real-time PCR PPS 199 (Table 22); type: cell-based; settings: treated 4 hours, harvested 16 hours later, − decrease, + increase vs untreated control
Protocol: When cells reached 80% confluency, they are treated with duplexed antisense compounds of the invention. For cells grown in 96-well plates, wells are washed once with […] OPTI-MEM-1 reduced-serum medium (Gibco BRL) and then treated with 130 μL of OPTI-MEM-1 containing 12 μg/mL LIPOFECTIN (Gibco BRL) and the desired duplex antisense compound at a final concentration of 200 nM (a ratio of 6 μg/mL LIPOFECTIN per 100 nM duplex antisense compound). After 5 hours of treatment, the medium is replaced with fresh medium. Cells are harvested 16 hours after treatment, at which time RNA is isolated and target reduction measured by RT-PCR.
The compounds in Table 21 were tested for their effects on human STAT3 expression in A549 cells. ISIS 330249 targets the same site as the antisense oligonucleotid ISIS 106734 (SEQ ID NO: 45) and ISIS 330247 targets the same site as the antisense oligonucleotide ISIS 113176 (SEQ ID NO: 115); thus, ISIS 106734 and ISIS 113176 were also tested. A549 cells were treated with oligonucleotide mixed with LIPOFECTIN (Invitrogen Corporation, Carlsbad, Calif.) as described herein. The control oligonucleotide used was ISIS 129698 ([…], SEQ ID NO: 402). Cells were treated with oligonucleotide for 4 hours and harvested an additional 16 hours later. Untreated cells served as a control.
Human STAT3 mRNA expression levels were quantitated by real-time PCR using primer probe set PPS 199 and gene target quantities were normalized using Ribogreen as described in other examples herein. A “−” or “+” designation indicates a decrease or increase of STAT 3 mRNA expression, respectively, relative to untreated control cells. Where present, “N.D.” indicates not determined.

Substance: 23178 (antisense eA*eA*eA*eA*eA*dC*dT*dC*dC*dG*dC*dT*dG*dA*dA*eT*eG*e[5mC]*e[5mC]*e[5mC]) [compound 23178]
- % RANTES mRNA ([1]; dose 5 nM, control 100%): 96%
- % RANTES mRNA ([1]; dose 10 nM): 70.2%
- % RANTES mRNA ([1]; dose 20 nM): 56%
- % MIP1a mRNA ([2]; dose 5 nM): 123%
- % MIP1a mRNA ([2]; dose 10 nM): 116%
- % MIP1a mRNA ([2]; dose 20 nM): 106%
- % MIP1b mRNA ([3]; dose 5 nM): 96.5%
- % MIP1b mRNA ([3]; dose 10 nM): 87.1%
- % MIP1b mRNA ([3]; dose 20 nM): 73.3%

Substance: 113176 (antisense eG*e[5mC]*eT*e[5mC]*e[5mC]*dA*dG*d[5mC]*dA*dT*d[5mC]*dT*dG*d[5mC]*dT*eG*e[5mC]*eT*eT*e[5mC]) [compound 113176]
- Percent inhibition of STAT3 expression ([4]; Oligo concentration 2.5 μM): 33%
- Percent inhibition of STAT3 expression ([4]; Oligo concentration 5 μM): 67%
- Percent inhibition of STAT3 expression ([4]; Oligo concentration 10 μM): 79%
- % mRNA INHIBITION ([4]; U266 cells, 2.5 μM oligonucleotide, electroporation, 24 hours): 27.7%
- % mRNA EXPRESSION ([4]; U266 cells, 2.5 μM oligonucleotide, electroporation, 24 hours, percent of control): 72.3%
- annexin V staining (in words) [5]: increased levels of annexin V staining
- Percent change in STAT3 mRNA expression in A549 cells by duplex antisense compounds ([6]; 12.5 nM oligonucleotide): +8%
- Percent change in STAT3 mRNA expression in A549 cells by duplex antisense compounds ([6]; 25 nM oligonucleotide): +17%
- Percent change in STAT3 mRNA expression in A549 cells by duplex antisense compounds ([6]; 50 nM oligonucleotide): +6%
- Percent change in STAT3 mRNA expression in A549 cells by duplex antisense compounds ([6]; 100 nM oligonucleotide): 0%
- Percent change in STAT3 mRNA expression in A549 cells by duplex antisense compounds ([6]; 200 nM oligonucleotide): −22%
- Percent change in STAT3 mRNA expression in A549 cells by duplex antisense compounds ([6]; 400 nM oligonucleotide): −34%
